Measurements taken from paper PMC5413348, “Structure of Fam20A reveals a pseudokinase featuring a unique disulfide pattern and inverted ATP-binding” (eLife, 2017).
Where a chain is given by its changes, count along the chain named. Where two headings read alike, the source gives them in different places.

Key:
Fam20A [1] = biological target: T1, Fam20A (Homo sapiens, UniProt Q96MK3, K223A); assay: thermal stability shift assay (SYPRO Orange); assay type: binding; details: 100 μM ATP; 20 mM HEPES pH 7.5, 100 mM NaCl
T1 construct: residues 69-529; secreted from Hi5 insect cells; N-terminal 6xHis-SUMO tag removed by TEV protease; dimer in crystal, concentration-dependent dimer/oligomer in solution
T1 sequence (Q96MK3 69-529 K223A): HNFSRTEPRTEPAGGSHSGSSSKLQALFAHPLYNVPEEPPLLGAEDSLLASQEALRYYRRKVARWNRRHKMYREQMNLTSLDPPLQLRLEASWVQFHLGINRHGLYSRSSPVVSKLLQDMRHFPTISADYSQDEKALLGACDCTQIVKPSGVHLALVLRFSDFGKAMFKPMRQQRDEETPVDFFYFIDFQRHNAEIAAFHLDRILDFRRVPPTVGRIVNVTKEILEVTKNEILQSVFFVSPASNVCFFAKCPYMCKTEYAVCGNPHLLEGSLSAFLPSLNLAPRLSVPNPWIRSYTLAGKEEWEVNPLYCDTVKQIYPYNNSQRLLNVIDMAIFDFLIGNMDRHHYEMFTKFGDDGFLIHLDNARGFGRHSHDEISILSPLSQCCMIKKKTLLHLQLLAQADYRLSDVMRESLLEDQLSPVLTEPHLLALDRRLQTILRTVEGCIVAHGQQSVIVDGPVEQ

Fam20A [2] = biological target: T2, Fam20A (Homo sapiens, UniProt Q96MK3, D430A); assay: thermal stability shift assay (SYPRO Orange); assay type: binding; details: 100 μM ATP; 20 mM HEPES pH 7.5, 100 mM NaCl
T2 construct: residues 69-529; secreted from Hi5 insect cells; N-terminal 6xHis-SUMO tag removed by TEV protease; dimer in crystal, concentration-dependent dimer/oligomer in solution
T2 sequence (Q96MK3 69-529 D430A): T1 sequence (Q96MK3 69-529 K223A) with A155K, D362A

Fam20A [3] = biological target: T3, Fam20A (Homo sapiens, UniProt Q96MK3); assay: thermal stability shift assay (SYPRO Orange), dTm vs concentration fit; assay type: binding; details: 20 mM HEPES pH 7.5, 100 mM NaCl
T3 construct: residues 69-529; secreted from Hi5 insect cells; N-terminal 6xHis-SUMO tag removed by TEV protease; dimer in crystal, concentration-dependent dimer/oligomer in solution
T3 sequence (Q96MK3 69-529): T1 sequence (Q96MK3 69-529 K223A) with A155K

Fam20A [4] = biological target: T3, Fam20A; assay: thermal stability shift assay (SYPRO Orange); assay type: binding; details: 10 μM nucleotide; no metal ions; 20 mM HEPES pH 7.5, 100 mM NaCl
[5] = biological target: the molecule itself; assay: SEC; 1 mg or 100 µg purified Fam20A (both in 500 µl) on Superdex 200 increase 10/300 GL, 20 mM HEPES, pH 7.5, 100 mM NaCl

Which Tm (Fam20A [1]) does the source give for `Nc1ncnc2c1ncn2[C@@H]1O[C@H](COP(=O)(O)OP(=O)(O)OP(=O)(O)O)[C@@H](O)[C@H]1O` [ATP] here?
Its Tm is “with Ala has little effect on the ability of Fam20A to bind ATP”.

And the Tm (Fam20A [2])?
The Tm was “with Ala has little effect on the ability of Fam20A to bind ATP”.

And the Kd (Fam20A [3]; no divalent cations, inverted orientation in crystal, read-out: Kd^app)?
Its Kd is 3 µM.

`Nc1nc2c(ncn2[C@@H]2O[C@H](COP(=O)(O)OP(=O)(O)OP(=O)(O)O)[C@@H](O)[C@H]2O)c(=O)[nH]1` [GTP] was tested. Which ΔTm (Fam20A [4]) did it give?
The ΔTm was “Fam20A also binds other nucleoside triphosphates including GTP, CTP, and UTP”.

For `Nc1ccn([C@@H]2O[C@H](COP(=O)(O)OP(=O)(O)OP(=O)(O)O)[C@@H](O)[C@H]2O)c(=O)n1` [CTP], which ΔTm (Fam20A [4]) is on record?
Its ΔTm is “Fam20A also binds other nucleoside triphosphates including GTP, CTP, and UTP”.

`O=c1ccn([C@@H]2O[C@H](COP(=O)(O)OP(=O)(O)OP(=O)(O)O)[C@@H](O)[C@H]2O)c(=O)[nH]1` [UTP] was tested. Which ΔTm (Fam20A [4]) did it give?
The ΔTm was “Fam20A also binds other nucleoside triphosphates including GTP, CTP, and UTP”.

Which Kd (Fam20A [3]; no cations) does the source give for `Nc1ncnc2c1ncn2[C@@H]1O[C@H](COP(=O)(O)OP(=O)(O)O)[C@@H](O)[C@H]1O` [ADP] here?
The Kd was “Fam20A prefers binding ATP over ADP (Figure 2D)”.

B1: Human Fam20A residues 69–529 (domain or fragment, UniProt Q96MK3 69-529, looked up)
chain: T1 sequence (Q96MK3 69-529 K223A) with A155K
notes: Fam20A, human, residues 69-529, secreted from a modified pI-secSUMOstar vector; the 6xHis-SUMO tag was removed by TEV protease; The only purified Fam20A construct that the methods describe; also called untagged Fam20A; purified Fam20A; source: Hi5 insect cells (baculovirus), conditioned medium, purified (Ni-NTA, Resource Q, Superdex 200); not shown: 6xHis, N-terminal, cleaved; SUMO, N-terminal, …
Does B1 bind [5]?
Result: binds
